In patent publication US10336762B2 (priority 2017, dated 2019):
Where two headings read alike, the source gives them in different places.

Key:
[1] = tested on: TNFα; experiment: cells; format: cell-based, human; details: Homo sapiens, Monocyte, LPS-stimulated human monocytes, read-out: EC50 TNF
[2] = biological target: IRAK4 enzyme (Homo sapiens (Human), UniProt Q9NWZ3); experiment: biochemical; format: biochemical; details: IRAK4 enzyme, 500 μM ATP
Sequence of IRAK4 enzyme (Q9NWZ3 whole entry): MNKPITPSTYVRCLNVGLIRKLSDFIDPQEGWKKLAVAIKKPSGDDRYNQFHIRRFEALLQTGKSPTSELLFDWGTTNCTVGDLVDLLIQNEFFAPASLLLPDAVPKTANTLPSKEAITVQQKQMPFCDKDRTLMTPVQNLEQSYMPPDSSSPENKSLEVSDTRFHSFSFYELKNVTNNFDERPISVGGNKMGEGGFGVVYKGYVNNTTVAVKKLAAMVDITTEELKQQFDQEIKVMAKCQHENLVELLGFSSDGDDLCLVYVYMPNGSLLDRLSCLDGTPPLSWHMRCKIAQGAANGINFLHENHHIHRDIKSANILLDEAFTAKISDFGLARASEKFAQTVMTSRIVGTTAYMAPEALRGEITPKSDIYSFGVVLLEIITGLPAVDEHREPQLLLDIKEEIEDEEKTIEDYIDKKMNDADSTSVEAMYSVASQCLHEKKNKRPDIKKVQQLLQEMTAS

In the case of `CC(C)C(=O)NCc1ccc(Nc2cc(-c3ccc4cc(C#N)cnn34)ncc2C(=O)NC[C@@H](F)C(C)(C)O)cc1` [Example 203, (R)-6-(3-cyanopyrrolo[1,2-b]pyridazin-7-yl)-N-(2-fluoro-3-hydroxy-3-methylbutyl)-4-((4-(isobutyramidomethyl)phenyl)amino) nicotinamide], the EC50 ([1]; TNFα content) is reported as 44 nM and the IC50 ([2]; TR-FRET) is reported as < 1 nM.

With `CC(C)(O)[C@H](F)CNC(=O)c1cnc(-c2ccc3cc(C#N)cnn23)cc1Nc1cnc(-c2cnco2)nc1` [Example 641, (R)-6-(3-cyanopyrrolo[1,2-b]pyridazin-7-yl)-N-(2-fluoro-3-hydroxy-3-methylbutyl)-4-((2-(oxazol-5-yl)pyrimidin-5-yl)amino)nicotinamide] the EC50 ([1]; TNFα content) was 21 nM and the IC50 ([2]; TR-FRET (HTRF)) was < 1 nM.

With `CC(C)(O)[C@H](F)CNC(=O)c1cnc(-c2ccc3cc(C#N)cnn23)cc1Nc1ccc(CNCC(F)F)cc1` [Example 872, (R)-6-(3-cyanopyrrolo[1,2-b]pyridazin-7-yl)-4-((4-(((2,2-difluoroethyl)amino)methyl)phenyl)amino)-N-(2-fluoro-3-hydroxy-3-methylbutyl)nicotinamide] the EC50 ([1]; TNFα by TR-FRET) was 14 nM and the IC50 ([2]; TR-FRET) was < 1 nM.

In the case of `N#Cc1cnn2c(-c3cc(NC45CCC(O)(CC4)CC5)c(C(=O)N[C@H]4CNC4=O)cn3)ccc2c1` [Example 955, (S)-6-(3-cyanopyrrolo[1,2-b]pyridazin-7-yl)-4-((4-hydroxybicyclo[2.2.2]octan-1-yl)amino)-N-(2-oxo-azetidin-3-yl)nicotinamide], the EC50 ([1]; TNFα by TR-FRET) is reported as 399 nM and the IC50 ([2]; TR-FRET) is reported as < 1 nM.

Work on `COC(=O)N1CC[C@H]1CNc1cc(-c2ccc3cc(C#N)cnn23)ncc1C(=O)NC[C@@H](F)C(C)(C)O` [Example 890, (S)-methyl 2-(((2-(3-cyanopyrrolo[1,2-b]pyridazin-7-yl)-5-(((R)-2-fluoro-3-hydroxy-3-methylbutyl)carbamoyl)pyridin-4-yl)amino)methyl)azetidine-1-carboxylate] yielded an EC50 ([1]; TNFα by TR-FRET) of 357 nM and an IC50 ([2]; TR-FRET) of 14 nM.

With `CC(C)(O)[C@H](F)CNC(=O)c1cnc(-c2ccc3cc(C#N)cnn23)cc1Nc1cnc(N2CC3CC(C2)O3)nc1` [Example 920, 4-((2-(6-oxa-3-aza-bicyclo[3.1.1]heptan-3-yl)pyrimidin-5-yl)amino)-6-(3-cyanopyrrolo[1,2-b]pyridazin-7-yl)-N-((R)-2-fluoro-3-hydroxy-3-methyl-butyl)nicotinamide] the EC50 ([1]; TNFα by TR-FRET) was 8 nM and the IC50 ([2]; TR-FRET) was < 1 nM.

In the case of `CC(C)(O)[C@H](F)CNC(=O)c1cnc(-c2ccc3cc(C#N)cnn23)cc1NC12CCC(F)(CC1)CC2` [Example 503, (R)-6-(3-cyanopyrrolo[1,2-b]pyridazin-7-yl)-N-(2-fluoro-3-hydroxy-3-methylbutyl)-4-((4-fluorobicyclo[2.2.2]octan-1-yl)amino)nicotinamide], the EC50 ([1]; TNFα content) is reported as 46 nM and the IC50 ([2]; TR-FRET (HTRF)) is reported as 2 nM.

In the case of `CC(C)(O)CCNc1cc(-c2ccc3cc(C#N)cnn23)ncc1C(=O)NC[C@@H](F)C(C)(C)O` [Example 80, (R)-6-(3-cyanopyrrolo[1,2-b]pyridazin-7-yl)-N-(2-fluoro-3-hydroxy-3-methylbutyl)-4-((3-hydroxy-3-methylbutyl)amino) nicotinamide], the EC50 ([1]; TNFα content) is reported as 88 nM and the IC50 ([2]; TR-FRET) is reported as < 1 nM.

For `COc1ccc2nc(Nc3cc(-c4ccc5cc(C#N)cnn45)ncc3C(=O)NC[C@@H](F)C(C)(C)O)sc2c1` [Example 376, (R)-6-(3-cyanopyrrolo[1,2-b]pyridazin-7-yl)-N-(2-fluoro-3-hydroxy-3-methylbutyl)-4-((6-methoxybenzo[d]thiazol-2-yl)amino)nicotinamide], the EC50 ([1]; TNFα content) was 736 nM and the IC50 ([2]; TR-FRET) was 2 nM.

In the case of `CC(C)(O)[C@H](F)CNC(=O)c1cnc(-c2ccc3cc(C#N)cnn23)cc1N[C@@H]1CCCN(S(C)(=O)=O)C1` [Example 254, 6-(3-cyanopyrrolo[1,2-b]pyridazin-7-yl)-N-((R)-2-fluoro-3-hydroxy-3-methylbutyl)-4-(((R)-1-(methylsulfonyl)piperidin-3-yl)amino)nicotinamide], the EC50 ([1]; TNFα content) is reported as 2020 nM and the IC50 ([2]; TR-FRET) is reported as 17 nM.

Work on `Cn1cncc1CNC(=O)c1cnc(-c2ccc3cc(C#N)cnn23)cc1NC12CCC(O)(CC1)CC2` [Example 925, 6-(3-cyanopyrrolo[1,2-b]pyridazin-7-yl)-4-((4-hydroxybicyclo[2.2.2]octan-1-yl)amino)-N-((1-methyl-1H-imidazol-5-yl)methyl)nicotinamide] yielded an EC50 ([1]; TNFα by TR-FRET) of 583 nM and an IC50 ([2]; TR-FRET) of 4 nM.

`CC(C)Nc1cc(-c2ccc3cc(C#N)cnn23)ncc1C(=O)NCCNS(C)(=O)=O` [Example 88, 6-(3-cyanopyrrolo[1,2-b]pyridazin-7-yl)-4-(isopropyl-amino)-N-(2-(methylsulfonamido)ethyl) nicotinamide] showed an EC50 ([1]; TNFα content) of 209 nM and an IC50 ([2]; TR-FRET) of 3 nM.

`CC(C)(O)[C@H](F)CNC(=O)c1cnc(-c2ccc3cc(C#N)cnn23)cc1NC1CCNC(=O)C1` (stereo partly drawn) [Example 327, 6-(3-cyanopyrrolo[1,2-b]pyridazin-7-yl)-N-((R)-2-fluoro-3-hydroxy-3-methylbutyl)-4-((2-oxo-piperidin-4-yl)amino)nicotinamide] was tested, and the EC50 ([1]; TNFα content) was 738 nM and the IC50 ([2]; TR-FRET) was 1 nM.

`CC(C)(O)[C@H](F)CNC(=O)c1cnc(-c2ccc3cc(C#N)cnn23)cc1N[C@H]1CC[C@@H](N)C1` [Example 310, 4-(((1S,3R)-3-aminocyclopentyl)amino)-6-(3-cyanopyrrolo[1,2-b]pyridazin-7-yl)-N-((R)-2-fluoro-3-hydroxy-3-methylbutyl)nicotinamide] was tested, and the EC50 ([1]; TNFα content) was 362 nM and the IC50 ([2]; TR-FRET) was 2 nM.

For `CC(C)(O)[C@H](F)CNC(=O)c1cnc(-c2ccc3cc(C#N)cnn23)cc1Nc1ccc(OC2COC2)nc1` [Example 649, (R)-6-(3-cyanopyrrolo[1,2-b]pyridazin-7-yl)-N-(2-fluoro-3-hydroxy-3-methylbutyl)-4-((6-(oxetan-3-yloxy)pyridin-3-yl)amino)nicotinamide], the EC50 ([1]; TNFα content) was > 10000 nM and the IC50 ([2]; TR-FRET (HTRF)) was 21 nM.

For `CC(C)(O)[C@H](F)CNC(=O)c1cnc(-c2ccc3cc(C#N)cnn23)cc1N[C@H]1CC[C@H](n2cncn2)CC1` [Example 779, 4-(((1r,4R)-4-(1H-1,2,4-triazol-1-yl)cyclohexyl)amino)-6-(3-cyano-pyrrolo[1,2-b]pyridazin-7-yl)-N-((R)-2-fluoro-3-hydroxy-3-methylbutyl) nicotinamide], the EC50 ([1]; TNFα content) was 28 nM and the IC50 ([2]; TR-FRET (HTRF)) was < 1 nM.

In the case of `CC(C)(O)[C@H](F)CNC(=O)c1cnc(-c2ccc3cc(C#N)cnn23)cc1Nc1nnc(Cc2ccccc2)o1` [Example 336, (R)-4-((5-benzyl-1,3,4-oxadiazol-2-yl)amino)-6-(3-cyanopyrrolo[1,2-b]pyridazin-7-yl)-N-(2-fluoro-3-hydroxy-3-methyl-butyl)nicotinamide], the EC50 ([1]; TNFα content) is reported as 522 nM and the IC50 ([2]; TR-FRET) is reported as 5 nM.

For `CC(C)(O)[C@H](F)CNC(=O)c1cnc(-c2ccc3cc(C#N)cnn23)cc1Nc1ccc(C(C)(C)N2CCOC2=O)cc1` [Example 874, (R)-6-(3-cyanopyrrolo[1,2-b]pyridazin-7-yl)-N-(2-fluoro-3-hydroxy-3-methylbutyl)-4-((4-(2-(2-oxooxazolidin-3-yl)propan-2-yl)phenyl)amino)nicotinamide], the EC50 ([1]; TNFα by TR-FRET) was 13 nM and the IC50 ([2]; TR-FRET) was < 1 nM.

`CN(C)C(=O)c1ccc(Nc2cc(-c3ccc4cc(C#N)cnn34)ncc2C(=O)NC[C@@H](F)C(C)(C)O)cn1` [Example 575, (R)-5-((2-(3-cyano-pyrrolo[1,2-b]pyridazin-7-yl)-5-((2-fluoro-3-hydroxy-3-methylbutyl)carbamoyl)pyridin-4-yl)amino)-N,N-dimethyl-picolinamide] was tested, and the EC50 ([1]; TNFα content) was 144 nM and the IC50 ([2]; TR-FRET (HTRF)) was 2 nM.
